Measurements from the NIST ThermoML archive (doi:10.1021/acs.jced.6b00354).

Test: mn = molality of the nth substance listed, in mol/kg
Details: 100 kPa, Liquid, Alternating current cell with electrodes

CCn1cc[n+](C)c1.F[B-](F)(F)F [1-ethyl-3-methylimidazolium tetrafluoroborate] + CC(=O)N(C)C
electrical conductivity [S/m]
Details | 283.15 K | 288.15 K | 293.15 K | 298.15 K | 303.15 K | 308.15 K | 313.15 K | 318.15 K
m1 = 0.0005629 | 0.0031908 | 0.0034405 | 0.0036939 | 0.0039526 | 0.0042191 | 0.004484 | 0.0047434 | 0.0050185
m1 = 0.0006895 | 0.0038906 | 0.004193 | 0.0045017 | 0.0048205 | 0.0051443 | 0.0054656 | 0.0057804 | 0.0061132
m1 = 0.000982 | 0.0054941 | 0.0059172 | 0.0063518 | 0.0067988 | 0.0072509 | 0.0077078 | 0.0081485 | 0.0086157
m1 = 0.001939 | 0.010589 | 0.011412 | 0.012243 | 0.013099 | 0.013967 | 0.014834 | 0.015676 | 0.016565
m1 = 0.002956 | 0.015824 | 0.017057 | 0.018294 | 0.019571 | 0.020868 | 0.022135 | 0.023398 | 0.024707
m1 = 0.004046 | 0.021327 | 0.022927 | 0.024608 | 0.026319 | 0.028044 | 0.029762 | 0.031425 | 0.033169
m1 = 0.005688 | 0.029289 | 0.031559 | 0.033817 | 0.036147 | 0.038528 | 0.040878 | 0.043126 | 0.045508
m1 = 0.007809 | 0.039246 | 0.042233 | 0.045277 | 0.048414 | 0.051576 | 0.054665 | 0.057654 | 0.060821
m1 = 0.009857 | 0.048544 | 0.052266 | 0.056056 | 0.059913 | 0.063775 | 0.067588 | 0.071261 | 0.075126
m1 = 0.01192 | 0.057623 | 0.062014 | 0.06648 | 0.071 | 0.075636 | 0.08016 | 0.08449 | 0.089017
m1 = 0.01392 | 0.066221 | 0.071259 | 0.076376 | 0.081634 | 0.08688 | 0.09207 | 0.097012 | 0.10224
m1 = 0.01584 | 0.074143 | 0.079848 | 0.085601 | 0.091493 | 0.097323 | 0.10312 | 0.10873 | 0.11459

CC(=O)N(C)C [N,N-dimethylethanamide] + CCCCn1cc[n+](C)c1.F[B-](F)(F)F
electrical conductivity [S/m]
Details | 283.15 K | 288.15 K | 293.15 K | 298.15 K | 303.15 K | 308.15 K | 313.15 K | 318.15 K
m2 = 0.0003956 | 0.0021612 | 0.0023283 | 0.0025019 | 0.0026803 | 0.0028647 | 0.0030385 | 0.00322 | 0.0034051
m2 = 0.000671 | 0.0036275 | 0.0039047 | 0.004196 | 0.0044945 | 0.0047984 | 0.0050953 | 0.0053975 | 0.0057039
m2 = 0.0009718 | 0.0051999 | 0.0056027 | 0.0060224 | 0.0064451 | 0.0068768 | 0.0073024 | 0.0077338 | 0.0081707
m2 = 0.001959 | 0.010227 | 0.011022 | 0.011831 | 0.012666 | 0.013508 | 0.014339 | 0.015175 | 0.01603
m2 = 0.002976 | 0.01525 | 0.016416 | 0.017623 | 0.018852 | 0.020112 | 0.021302 | 0.022571 | 0.023828
m2 = 0.003778 | 0.019105 | 0.020563 | 0.022088 | 0.023628 | 0.025189 | 0.026664 | 0.028258 | 0.029817
m2 = 0.005993 | 0.02947 | 0.03171 | 0.034016 | 0.036401 | 0.038756 | 0.041015 | 0.043439 | 0.045784
m2 = 0.007976 | 0.03841 | 0.041353 | 0.044368 | 0.047396 | 0.050472 | 0.053564 | 0.056503 | 0.059519
m2 = 0.009999 | 0.047279 | 0.050928 | 0.054557 | 0.058325 | 0.062033 | 0.065747 | 0.069408 | 0.073087
m2 = 0.01203 | 0.055972 | 0.060177 | 0.064588 | 0.069017 | 0.073419 | 0.077654 | 0.082086 | 0.086346
m2 = 0.01408 | 0.064541 | 0.069536 | 0.074489 | 0.079576 | 0.084557 | 0.089517 | 0.094529 | 0.099432
m2 = 0.01598 | 0.072339 | 0.07784 | 0.083519 | 0.089184 | 0.094781 | 0.10031 | 0.10588 | 0.1113
